Measurements published in the NIST ThermoML archive (doi:10.1016/j.tca.2010.08.021).
Numbers after ± are expanded uncertainties.

Columns and labels:
[1] = Crystal; visual observation
[2] = Molar enthalpy of transition or fusion; conditions: Crystal; DSC

| SMILES | Normal melting temperature [1] [°C] | Molar enthalpy of transition or fusion [2] [kcal/mol] |
| --- | --- | --- |
| N#CCCC#N [butanedinitrile] | 57.00 ± 1 | 0.884 ± 0.0478 |
| O=[N+]([O-])c1c(Cl)c(Cl)c(Cl)c(Cl)c1Cl [pentachloronitrobenzene] | 145.00 ± 1 | 4.59 ± 0.143 |
